Results published in patent US8507554B2 (priority 2006, dated 2013).

Legend:
P. aeruginosa [1] = assay: Inhibiting ability against biofilm formation: count of adhesive P. aeruginosa on specimen surface after 4 hours; format: cell-based, Pseudomonas aeruginosa; details: 10 μmol/L, table shows Comparative example 1 (distilled water) = 100
Method: Inhibiting ability against biofilm formation of quorum-sensing antagonist prepared according to exemplary embodiments 1-7 was evaluated.
Specimen was set in nutrient flask containing 10 μmol/L of quorum-sensing antagonist prepared according to exemplary embodiments 1-7 and P. aeruginosa which has strong adhesive character on surface. Numbers of adhesive P. aeruginosa on surface were counted after 4 hours. Distilled water was poured into nutrient flask instead of quorum-sensing antagonist as a comparison example 1. Numbers of adhesive P. aeruginosa on surface were counted after 4 hours. […] Numbers of adhesive P. aeruginosa on surface were counted after 4 hours. […]

P. aeruginosa [2] = assay: Microscopy of P. aeruginosa biofilm grown on specimens for 48 hours; format: cell-based, Pseudomonas aeruginosa; details: biofilm grown 48 hours
Method: Specimens were set in nutrient flasks containing compounds according to the first exemplary embodiment 1, comparative examples 1 and 2. Biofilm was grown on the specimens for 48 hours. The specimen were examined using microscope. Furthermore, specimens were set in nutrient flasks containing compounds according to exemplary embodiment 6 and comparative example 2. Biofilm on the specimens was grown for 48 hours. The specimens were examined using a microscope.

Vibrio harveyi BB886 = assay: Bioluminescence assay of quorum-sensing antagonistic ability with reporter strain Vibrio harveyi BB886; format: cell-based; details: 2 hours
Method: Quorum-sensing antagonistic ability of 2-(phenylcarbonothioylthio) acetyl homoserine lactone as described in Formula 8 was evaluated using Vibrio harveyi strain BB886 which responds to the AI-1, i.e., N-(3-hydroxybutanoyl)-1-homoserine lactone (3-OH—C4-HSL) as reporter strain. Vibrio harveyi strain BB886 was grown in LBS medium (10 g/L tryptone, 5 g/L yeast extract, 20 g/L NaCl) at 30° C. For the bioluminescence assay, an overnight culture was diluted 100-fold in a sterile AI bioassay (AB) medium (300 mM NaCl, 50 mM MgSO4, 0.2% (w/v) vitamin-free casamino acid, 10 mM potassium phosphate, 1 mM 1-arginine, 1% glycerol; pH 7.5).
After vaporizing chloroform in 4 test tubes at 30° C. for 2 hours, 4.0 mL of the diluted reporter strain culture was added to No. 1˜No. 4 test tubes and incubated at 30° C. Luminescence measurements were performed after 2 hours of incubation using a luminescence meter (Thermo Electron Co.). Bacterial cell density was measured by optical densities at 600 nm (OD600) using a UV spectrophotometer (HP8452A, H.P.). The antagonist activities of 2-(phenylcarbonothioylthio) acetyl homoserine lactone were expressed as a specific luminescence; relative light units/OD600. […]

[3] = test system: Agrobacterium tumefaciens A136(pTiA136, pCF218, pCF372); assay: LacZ luminescence assay of quorum-sensing antagonistic ability with reporter strain A. tumefaciens A136; format: cell-based; details: 0.5 μM autoinducer 3-oxo-C8-HSL plus 5 μM of compound
Method: A. tumefaciens A136 (pTiA136, pCF218, and pCF372) was cultured in Luria-Bertani (LB) media with 50 μg/mL spectinomycin and 4.5 μg/mL tetracycline at 30° C. For the bioassay of 2-(phenylcarbonothioylthio) acetyl homoserine lactone, an overnight culture was diluted at 1:100 and incubated up to an optical density of 0.3 at 600 nm (OD600) at 30° C.
No. 1 solution contained 0.5 μM of N-3-oxootanoyl homoserine lactone.
After vaporizing chloroform in 2 test tubes at 30° C. for 2 hours, 4.0 mL of the diluted reporter strain culture was added to No. 1 and No. 2 test tubes.
LacZ quantative analysis for test tubes described above was performed using Tropix-plus kit (Applied Biosystems, USA). Luminescence measurements were performed after 2 hours of incubation using a luminescence meter (Thermo Electron Co.). Bacterial cell density was measured by optical densities at 600 nm (OD600) using a UV spectrophotometer (HP8452A, H. P.). The antagonist activities of 2-(phenylcarbonothioylthio) acetyl homoserine lactone were expressed as a specific luminescence; relative light units/OD600.

[4] = test system: E. coli DH5α co-transformed by pJN105L (LasR expression plasmid) and pSC11 (lasI::lacZ fusion reporter plasmid); assay: LacZ bioassay of quorum-sensing antagonistic ability with co-transformed E. coli DH5α (LasR reporter); format: cell-based; details: 1 μM autoinducer 3-oxo-C12-HSL plus 1, 2 or 10 μM of compound
Method: Transformant E. coli was cultured in Luria-Bertani (LB) broth with 10 μg/mL gentamicin and 50 μg/mL ampicillin at 37° C.
For LacZ bioassay of 2-(phenylcarbonothioylthio) acetyl homoserine lactone, an overnight culture was diluted at 1:100 and incubated up to an optical density of 0.3 at 600 nm (OD600) at 30° C. Then, 0.4% arabinose was added.
After vaporizing chloroform in 4 test tubes at 37° C. for 2 hours, 4.0 mL of the diluted reporter strain culture was added to No. 1˜No. 4 test tubes.
LacZ Bioassay for test tubes described above was performed using Tropix-plus kit (Applied Biosystems, USA). Luminescence measurements were performed after 2 hours of incubation using a luminescence meter (Thermo Electron Co.). Bacterial cell density was measured by optical densities at 600 nm (OD600) using a UV spectrophotometer (HP8452A, H.P.).
The antagonist activities of 2-(phenylcarbonothioylthio) acetyl homoserine lactone were expressed as a specific luminescence; relative light units/OD600.

Structure (SMILES) | % of adhesive P. aeruginosa relative to comparative example (P. aeruginosa [1]) [%] | other results
CSCC(=O)NC1CCOC1=O (stereo not shown) [Example 5, 2-(methylthio)-N-(2-oxo-tetrahydrofuran-3-yl)acetamide] | 30 | 
O=C(O)CSCCSCC(=O)NC1CCOC1=O (stereo not shown) [Example 4, 2-(2-(2-oxo-2-(2-oxo-tetrahydrofuran-3-ylamino)ethylthio)ethylthio)acetic acid] | 13 | 
O=C(CSc1ccncc1)NC1CCOC1=O (stereo not shown) [Example 1, N-(2-oxo-tetrahydrofuran-3-yl)-2-(pyridin-4-ylthio)acetamide] | 40 | 
CCCCCC(=O)CC(=O)N[C@H]1CCOC1=O [Autoinducer] |  | P. aeruginosa attached on specimen (microscopic image) (P. aeruginosa [2]): plentifully observed
O=C(O)CSC(=S)SCC(=O)NC1CCOC1=O (stereo not shown) [Example 7] | 30 | 
O=C(CSC(=S)c1ccccc1)NC1CCOC1=O (stereo not shown) [Example 6, 2-(phenylcarbonothioylthio)acetyl homoserine lactone] | 20 | luminescence intensity per V. harveyi (relative light units/OD600) (Vibrio harveyi BB886; 1 μM autoinducer 3-OH-C4-HSL plus 1, 5 or 10 μM of compound): decreased remarkably; luminescence intensity per A. tumefaciens A136 (relative light units/OD600) [3]: decreased remarkably; luminescence intensity per co-transformed E. coli DH5α (relative light units/OD600) [4]: decreased remarkably
C[C@@H](O)CC(=O)N[C@H]1CCOC1=O [3-hydroxybutanoylhomoserine lactone, N-(3-hydroxybutanoyl)-1-homoserine lactone, reference compound] |  | luminescence intensity per V. harveyi (relative light units/OD600) (Vibrio harveyi BB886; sample containing only 1 μM autoinducer): relatively high
O=C(O)CSCC(=O)NC1CCOC1=O (stereo not shown) [Example 3, 2-(2-oxo-2-(2-oxo-tetrahydrofuran-3-ylamino)ethylthio)acetic acid] | 33 | 
CCCCCCCCCC(=O)CC(=O)N[C@H]1CCOC1=O [Comparative example 2, N-3-oxododecanoylhomoserinelactone, reference compound] | 190 | 
O=C(CSc1ncccn1)NC1CCOC1=O (stereo not shown) [Example 2] | 51 | 
